Reference: publication PMC4057667, “Study on Biopharmaceutics Classification and Oral Bioavailability of a Novel Multikinase Inhibitor NCE for Cancer Therapy” (International Journal of Molecular Sciences, 2014)
“And” between values parts separate entries of the source, which are not always exact repeats. Identical values can stand only once.

Legend:
[1] = test system: platelet-derived growth factor receptor (PDGFR); set-up: method as in PMID 21691074; settings: at a concentration of 10 μM; cited from earlier work
[2] = Stability in perfusion buffers; type: physicochemical; settings: for Detected concentration / Rate of change: perfusion buffer
Description: Storage conditions were investigated to guarantee the samples were stable before HPLC analysis. The stability of NCE was evaluated in the perfusion solution (pH 6.5). Four aliquots of the NCE solutions were stored at room temperature for 0, 2, 4 or 6 h, respectively. Another three were stored at 4 °C for 0, 24 or 48 h, respectively. All the samples were centrifuged at a rate of 1.3 × 10^4 rpm for 10 min and then measured by HPLC. The sample concentrations were compared.

[3] = test system: rat duodenum, jejunum and ileum; experiment: In situ single-pass intestinal perfusion (SPIP)
Description: The blank perfusion buffer solution was composed of 9.80 g Hanks’ Balanced Salts, 5.96 g 4-2(Hydroxyethyl) piperazine-1-ethanesulfonic acid (HEPES), 1.16 g NaCl, 3.50 g D-glucose and 0.37 g NaHCO3. The pH was adjusted to 6.5. […] The perfusate containing 2 μg/mL of NCE with and without 0.4% SDS was applied to three intestinal segments to investigate the effect of SDS on intestinal absorption of NCE. To examine whether there was any concentration-dependent characteristics or site specific absorption of NCE, 2, 20 and 40 μg/mL of NCE containing 0.4% SDS (w/v) were also studied in three intestinal segments using the same rat perfusion model.
Male Sprague-Dawley rats (170–230 g) were obtained from the Laboratory Animal Center, Sichuan University (Chengdu, China). Prior to the experiment, animals were fasted for at least 18 h with free access to water. All animal studies were approved and supervised by the State Key Laboratory of Biotherapy Animal Care and Use Committee (Sichuan University, Chengdu, Sichuan, China). Then, single pass intestine perfusion studies were conducted according to the literature. In brief, rats were anaesthetized by pentobarbital sodium (i.p., […]) and placed on a homeothermic pad to maintain their body temperature. After making a 3–4 cm midline abdominal incision, the small intestinal was exposed. The duodenum, jejunum and ileum were isolated as follows: duodenum segment beginning from 1 cm away from pylorus, jejunum segment beginning from 20 cm away from pylorus and ileum segment beginning at the site 20 cm upwards caecum. Each intestinal segment was approximately 10 cm long. After removing the intestinal content by rinsing with warm saline, two glass cannulas were inserted to the distal and proximal end of the segment. Then, the intestinal segments of interest were connected to a perfusion pump and the outlet tubing was placed at the same height as the inlet. The intestine was handled carefully to maintain an intact blood supply.
The segments were rinsed with perfusate at the rate of 1.0 mL/min for 10 min, and then perfused at the rate of 0.2 mL/min for 30 min to maintain a steady-state. The time was set zero immediately when the perfusion started. The outlet perfused samples were collected every 15 min until 120 min. Then, the samples were centrifuged at 1.3 × 10^4 rpm for 10 min. The supernatant was analyzed by HPLC. The length of tested segments was measured and rats were euthanized after experiment.
Peff is the quantitative parameter estimating the passage rate of a solute across a membrane. It was calculated from the steady-state concentration of NCE in the perfusate. The drug concentration in the perfusate was corrected for changes in the water flux. Meanwhile, the density corrected gravimetric method was employed to calculate the net water flux across the incubated intestinal segment. A known volume of perfusate was weighed using an electronic weighing balance to determine the density of the collected samples. After correcting for water flux, the drug concentration in the effluent perfusate (Cout(cor)), was calculated as following.
(3) Cout(cor)=Cout×Qout/Qin
where Cout is the concentration of tested drug in the effluent perfusates, Qin and Qout are the inlet and outlet flow rate (mL/min), respectively, which are adjusted for liquid density (mL/min).
The calculation of permeability across rat intestinal segment was performed from the intestinal perfusate samples collected over 15–120 min (steady state) using the following equation).
(4) Peff=-Qin ln(Cout(cor)/Cin)/2πrl

[4] = set-up: method as in ref 31 = [31]; 31. Yang Y. Fan C. Zhang J. He X. Yu Y. Fang D. He Y. Song X. Intestinal absorption characteristics and pharmacokinetics of the novel targeted small-molecular NCE in rats Chin. J. New Drugs 2013 21 25; settings: rats; cited from earlier work
[5] = Solubility with sodium dodecyl sulfate (SDS) added; type: physicochemical; settings: aqueous with cosolvent or surfactant or cyclodextrin
Description: Intrinsic dissolution ratio is defined as the dissolution rate of a pure drug substance under the condition of constant surface area, agitation or stirring speed, pH and ionic strength of the dissolution medium. As a rate characterization, IDR data has a good correlation with in vivo drug dissolution rate. […] Three different SDS concentrations were tested. The solubilities of NCE were 54.46 (0.4% SDS), 131.83 (1% SDS) and 255.91 (2% SDS) μg/mL. The volume of the release medium in this experiment was 900 mL, thus the introduction of 1% SDS into the medium was enough to achieve sink condition.
The concentration of NCE in perfusion buffer containing 0.4% SDS was high enough to conduct the following intestinal permeability study. Additionally, according to preliminary experiments, SDS with concentrations higher than 1% would be toxic to rats.

[6] = test system: fibroblast growth factor receptor 2 (FGFR2); set-up: method as in PMID 21691074; settings: at a concentration of 10 μM; cited from earlier work
[7] = test system: VEGF-stimulated human umbilical vein endothelial cells (HUVECs); set-up: method as in PMID 21691074; settings: in vitro; cited from earlier work
[8] = test system: vascular endothelial growth factor receptor 2 (VEGFR2); set-up: method as in PMID 21691074; settings: at a concentration of 10 μM; cited from earlier work
pKa determination = type: physicochemical; settings: read-out: pKa of conjugate acid

CNC(=O)c1cc(Oc2ccc(NC(=O)c3cccc(C(F)(F)F)c3)cc2)ccn1.Cc1ccc(S(=O)(=O)O)cc1.O [NCE, 2-methylcarbamoyl-4-{4-[3-(trifluoromethyl)benzamido]phenoxy} pyridinium 4-methylbenzenesulfonate monohydrate]
inhibition rate [1]: 55% | Detected concentration ([2]; 4 °C, 24 h): 19.16 µg/mL | Rate of change ([2]; 4 °C, 24 h): 3.38% | Detected concentration ([2]; 4 °C, 48 h): 18.99 µg/mL | Rate of change ([2]; 4 °C, 48 h): 4.21% | Detected concentration ([2]; 20 °C, 0 h): 19.83 µg/mL | Detected concentration ([2]; 20 °C, 2 h): 19.66 µg/mL | Rate of change ([2]; 20 °C, 2 h): 0.86% | Detected concentration ([2]; 20 °C, 4 h): 19.49 µg/mL | Rate of change ([2]; 20 °C, 4 h): 1.70% | Detected concentration ([2]; 20 °C, 6 h): 19.32 µg/mL | Rate of change ([2]; 20 °C, 6 h): 2.55% | concentration variation rates, all samples in stability study ([2]; perfusion buffers, up to 6 h at room temperature or 48 h at 4 °C): less than 5% | Peff ([3]; Duodenum, 2 μg/mL, with 0.4% SDS, n = 3): 0.26 ± 0.25 ^N.S. 10^−4 cm/s | Peff ([3]; Duodenum, 2 μg/mL, without SDS, n = 3): 0.26 ± 0.29 10^−4 cm/s | Peff ([3]; Duodenum, perfusate 2 μg/mL, 0.4% SDS, n = 6): 0.21 ± 0.18 10^−4 cm/s | Peff ([3]; Duodenum, perfusate 20 μg/mL, 0.4% SDS, n = 6): 0.34 ± 0.12 10^−4 cm/s | Peff ([3]; Duodenum, perfusate 40 μg/mL, n = 6): 0.49 ± 0.29 ^* 10^−4 cm/s and 0.49 ± 0.29 10^−4 cm/s | Peff ([3]; Ileum, 2 μg/mL, with 0.4% SDS, n = 3): 0.22 ± 0.15 ^N.S. 10^−4 cm/s | Peff ([3]; Ileum, 2 μg/mL, without SDS, n = 3): 0.23 ± 0.18 ^N.S. 10^−4 cm/s | Peff ([3]; Ileum, perfusate 2 μg/mL, 0.4% SDS, n = 6): 0.23 ± 0.25 ^N.S. 10^−4 cm/s | Peff ([3]; Ileum, perfusate 20 μg/mL, 0.4% SDS, n = 6): 0.29 ± 0.10 ^N.S. 10^−4 cm/s | Peff ([3]; Ileum, perfusate 40 μg/mL, n = 6): 0.52 ± 0.28 ^N.S. ^* 10^−4 cm/s and 0.52 ± 0.28 ^N.S. 10^−4 cm/s | Peff ([3]; Jejunum, 2 μg/mL, with 0.4% SDS, n = 3): 0.25 ± 0.22 ^N.S. 10^−4 cm/s | Peff ([3]; Jejunum, 2 μg/mL, without SDS, n = 3): 0.25 ± 0.24 ^N.S. 10^−4 cm/s | Peff ([3]; Jejunum, perfusate 2 μg/mL, 0.4% SDS, n = 6): 0.20 ± 0.30 ^N.S. 10^−4 cm/s | Peff ([3]; Jejunum, perfusate 20 μg/mL, 0.4% SDS, n = 6): 0.30 ± 0.15 ^N.S. 10^−4 cm/s | Peff ([3]; Jejunum, perfusate 40 μg/mL, n = 6): 0.56 ± 0.26 ^N.S. ^* 10^−4 cm/s and 0.56 ± 0.26 ^N.S. 10^−4 cm/s | transportation mechanism in intestine ([3]; Peff unchanged from 2–40 μg/mL): passive diffusion | permeability class ([3]; from Peff compared with theophylline, ranitidine and propranolol): high permeability | minimum of Peff ([3]; three segments, three concentrations, found in jejunum): 20 ×10⁻⁶ cm/s | absolute oral bioavailability [4]: 44.18% | solubility ([5]; phosphate buffer with 0.4% SDS): 54.5 µg/mL | solubility ([5]; phosphate buffer with 1% SDS): 132 µg/mL | solubility ([5]; phosphate buffer with 2% SDS): 256 µg/mL | inhibition rate [6]: 65% | inhibition of VEGF-stimulated HUVECs proliferation [7]: more selective inhibition | inhibition rate [8]: 97% | pKa (pKa determination): 2.86
